IC50 data for 41 compounds are collected here from patent publication US11555012B2 (Nimbus Artemis, Inc., priority 2018, dated 2023).

The test concerns the target ACL (Homo sapiens (Human), UniProt P53396). As to the kind of experiment: ADP-Glo Assay. For orientation: In ADP-Glo the light output rises with the ADP produced.

Structures are written as SMILES. Read-outs that look alike come from different tables or passages of the source. Some results are limits rather than exact numbers.

Sequence of ACL (P53396 other isoform, or with tags, fused parts or gaps isoform P53396-2): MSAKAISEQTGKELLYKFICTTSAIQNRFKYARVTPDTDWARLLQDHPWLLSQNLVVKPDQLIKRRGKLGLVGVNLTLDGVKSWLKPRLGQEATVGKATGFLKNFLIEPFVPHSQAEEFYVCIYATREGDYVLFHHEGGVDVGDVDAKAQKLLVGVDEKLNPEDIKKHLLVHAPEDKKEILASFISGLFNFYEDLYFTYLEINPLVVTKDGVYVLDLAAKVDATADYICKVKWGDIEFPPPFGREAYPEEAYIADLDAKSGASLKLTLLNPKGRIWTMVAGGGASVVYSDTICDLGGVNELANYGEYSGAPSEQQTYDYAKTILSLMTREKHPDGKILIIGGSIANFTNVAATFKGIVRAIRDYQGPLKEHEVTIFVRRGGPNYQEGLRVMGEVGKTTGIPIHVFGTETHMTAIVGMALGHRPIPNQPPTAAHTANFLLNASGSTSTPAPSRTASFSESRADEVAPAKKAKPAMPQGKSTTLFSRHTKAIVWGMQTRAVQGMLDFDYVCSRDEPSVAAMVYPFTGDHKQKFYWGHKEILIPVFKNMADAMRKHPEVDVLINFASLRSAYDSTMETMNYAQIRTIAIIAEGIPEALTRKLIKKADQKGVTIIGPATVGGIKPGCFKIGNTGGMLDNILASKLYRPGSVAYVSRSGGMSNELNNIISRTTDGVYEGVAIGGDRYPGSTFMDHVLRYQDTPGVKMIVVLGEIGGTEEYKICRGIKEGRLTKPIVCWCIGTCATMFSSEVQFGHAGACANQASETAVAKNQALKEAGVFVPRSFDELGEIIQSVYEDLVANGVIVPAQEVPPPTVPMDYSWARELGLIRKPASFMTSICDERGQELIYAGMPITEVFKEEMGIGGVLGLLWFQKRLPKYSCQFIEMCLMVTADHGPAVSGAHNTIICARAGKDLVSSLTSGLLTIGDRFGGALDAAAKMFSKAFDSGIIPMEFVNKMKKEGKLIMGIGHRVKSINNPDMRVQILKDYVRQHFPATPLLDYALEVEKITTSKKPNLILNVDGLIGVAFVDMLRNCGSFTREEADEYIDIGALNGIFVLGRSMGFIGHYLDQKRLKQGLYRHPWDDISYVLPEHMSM
Procedure: Compounds of the present invention were evaluated in an ADP-GLO assay as follows:
b) Add 0.1 μL diluted cpd solution to assay plate, each dose with 2 replicates c) Centrifuge 1000 RPM for 1 min d) Add 5 μL ACL working solution to 384-well assay plate, centrifuge 1000 RPM for 1 min e) Incubate at 25° C. for 15 min f) Add 5 μL substrate working solution to initiate reaction
h) Reference final conc: 30 uM starting Conc, 3× dilution, 11+0 points. Test cpd conc: 30/100 uM starting Conc, 3× dilution, 11+0 points. i) Incubate at 25° C. for 60 min j) Add 10 μL ADP Glo reagent, centrifuge 1000 RPM for 1 min k) Incubate at 25° C. for 40 min l) Add 20 μL kinase detection reagent, centrifuge 1000 RPM for 1 min m) Incubate at 25° C. for 40 min n) Read on Envision for US LUM as RLU

For orientation: IC50 means the concentration at which inhibition is half-maximal. In the case of `COc1ccc(-c2ccccc2)cc1NS(=O)(=O)c1cc(C(=O)O)cs1` [I-408, 5-(N-(4-methoxy-[1,1′-biphenyl]-3-yl)sulfamoyl) thiophene-3-carboxylic acid], the 50% inhibitory concentration (IC50) is over 20 µM.
Same read-out and setting: as for `COc1ccc(-c2ccccc2)cc1NS(=O)(=O)c1ccc(C#N)cc1` [I-410, 4-cyano-N-(2-methoxy-5-phenylphenyl)benzene-1-sulfonamide], the figure is over 20 µM; as for `COc1ccc(C(=O)OC2CC2)cc1NS(=O)(=O)c1cc(Cl)cc(Cl)c1O` [I-411, cyclopropyl 3-((3,5-dichloro-2-hydroxyphenyl)sulfonamido)-4-methoxybenzoate], over 20 µM.
The same measure, in the same setting: as for `O=C(O)c1ccc(NS(=O)(=O)c2cc(Cl)cc(Cl)c2O)cc1Cl` [I-412, 2-chloro-4-[(3,5-dichloro-2-hydroxybenzene)sulfonamido]benzoic acid], the figure is over 20 µM.
On the same count and under the same terms, as for `COc1c(Cl)cc(Cl)cc1S(=O)(=O)Nc1cc(C(=O)O)ccc1F` [I-413, 3-[(3,5-dichloro-2-methoxybenzene)sulfonamido]-4-fluorobenzoic Acid], the figure is over 20 µM; as for `COc1ccc(-c2ccccc2)cc1NS(=O)(=O)c1cc(Cl)cc(Cl)c1N` [I-414, 2-amino-3,5-dichloro-N-(2-methoxy-5-phenylphenyl) benzene-1-sulfonamide], over 20 µM; as for `Cn1cc(Cl)cc(S(=O)(=O)Nc2cc(-c3ccccc3)ccc2F)c1=O` [I-415, 5-chloro-N-(2-fluoro-5-phenylphenyl)-1-methyl-2-oxo-1,2-dihydropyridine-3-sulfonamide], over 20 µM.
For the compound `COc1ccc(-c2ccccc2)cc1NS(=O)(=O)c1ccc(O)c(Cl)c1` [I-416, 3-chloro-4-hydroxy-N-(2-methoxy-5-phenylphenyl)benzene-1-sulfonamide], the IC50 is over 20 µM.
The same measure, in the same setting: as for `COc1ccc(-c2ccccc2)cc1N(Cc1ccccc1)S(=O)(=O)c1cn[nH]c1` [I-417, N-benzyl-N-(2-methoxy-5-phenylphenyl)-1H-pyrazole-4-sulfonamide], the figure is over 20 µM; as for `N#Cc1ccc(F)c(S(=O)(=O)Nc2cc(-c3ccccc3)ccc2F)c1` [I-418, 5-cyano-2-fluoro-N-(2-fluoro-5-phenylphenyl) benzene-1-sulfonamide], over 20 µM; as for `N#Cc1cccc(S(=O)(=O)Nc2cc(-c3ccccc3)ccc2F)c1` [I-419, 3-cyano-N-(2-fluoro-5-phenylphenyl)benzene-1-sulfonamide], over 20 µM.
As to `O=C(COc1c(Br)cc(Cl)cc1S(=O)(=O)N(Cc1ccccc1)c1cc(-c2ccccc2)ccc1F)OCc1ccccc1` [I-420, benzyl 2-(2-(N-benzyl-N-(4-fluoro-[1,1′-biphenyl]-3-yl)sulfamoyl)-6-bromo-4-chlorophenoxy)acetate], the IC50 is over 20 µM.
`COC(=O)c1cccc(S(=O)(=O)Nc2cc(-c3ccccc3)ccc2OC)c1` [I-421, methyl 3-(N-(4-methoxy-[1,1′-biphenyl]-3-yl)sulfamoyl)benzoate] returned an IC50 of over 20 µM.
Still for that read-out and setting: for `COc1ccc(-c2ccccc2)cc1NS(=O)(=O)c1cc(Cl)cc(C#N)c1` [I-422, 3-chloro-5-cyano-N-(2-methoxy-5-phenylphenyl)benzene-1-sulfonamide] the value was over 20 µM; for `CS(=O)(=O)NC(=O)c1ccc(F)c(NS(=O)(=O)c2cc(Cl)cc(Cl)c2O)c1` [I-423, 3-[(3,5-dichloro-2-hydroxybenzene)sulfonamido]-4-fluoro-N-methanesulfonylbenzamide], over 20 µM.
Same read-out and setting: as for `O=S(=O)(Nc1cc(-c2ccccc2)ccc1F)c1cc(-c2nn[nH]n2)ccc1F` [I-424, 2-fluoro-N-(2-fluoro-5-phenylphenyl)-5-(2H-1,2,3,4-tetrazol-5-yl)benzene-1-sulfonamide], the figure is over 20 µM; as for `COc1ccc(-c2cccnc2)cc1NS(=O)(=O)c1cc(C(=O)O)cc(Cl)c1OC` [I-425, 3-chloro-4-methoxy-5-(N-(2-methoxy-5-(pyridin-3-yl)phenyl)sulfamoyl)benzoic Acid], over 20 µM; as for `COc1ccc(-c2ccccc2)cc1N(C)S(=O)(=O)c1cc(C(=O)O)cc(Cl)c1O` [I-426, 3-chloro-4-hydroxy-5-[(2-methoxy-5-phenylphenyl)(methyl)sulfamoyl]benzoic acid], over 20 µM.
The compound `COc1ccc(-c2cccnc2)cc1NS(=O)(=O)c1cc(C(=O)O)cc(Cl)c1O` [I-427, 3-chloro-4-hydroxy-5-(N-(2-methoxy-5-(pyridin-3-yl)phenyl)sulfamoyl)benzoic Acid] came in with an IC50 of over 20 µM.
On the same count and under the same terms, for `COC(=O)c1cc(Cl)c(OC)c(S(=O)(=O)Nc2cc(-c3ccccc3)ccc2OC)c1` [I-428, Methyl 3-chloro-4-methoxy-5-(N-(4-methoxy-[1,1′-biphenyl]-3-yl)sulfamoyl)benzoate] the value was over 20 µM; for `NC(=O)c1ccc(F)c(S(=O)(=O)Nc2cc(-c3ccccc3)ccc2F)c1` [I-429, 4-fluoro-3-(N-(4-fluoro-[1,1′-biphenyl]-3-yl)sulfamoyl)benzamide], over 20 µM; for `COc1ccc(-c2ccccc2)cc1NS(=O)(=O)c1cc(Cl)cc(C(=O)O)c1OC` [I-430, 5-chloro-2-methoxy-3-(N-(4-methoxy-[1,1′-biphenyl]-3-yl)sulfamoyl)benzoic Acid], over 20 µM.
Still for that read-out and setting: for `COC(=O)c1cc(Cl)cc(S(=O)(=O)Nc2cc(-c3ccccc3)ccc2OC)c1O` [I-431, Methyl 5-chloro-2-hydroxy-3-(N-(4-methoxy-[1,1′-biphenyl]-3-yl)sulfamoyl)benzoate] the value was over 20 µM.
Take `COc1ccc(-c2ccccc2)cc1NS(=O)(=O)c1cc(C(N)=O)cc(Cl)c1OC` [I-432, 3-chloro-4-methoxy-5-(N-(4-methoxy-[1,1′-biphenyl]-3-yl)sulfamoyl)benzamide]: the IC50 was over 20 µM.
The compound `CNC(=O)c1cc(Cl)c(OC)c(S(=O)(=O)Nc2cc(-c3ccccc3)ccc2OC)c1` [I-433, 3-chloro-4-methoxy-5-(N-(4-methoxy-[1,1′-biphenyl]-3-yl)sulfamoyl)-N-methylbenzamide] displayed a half-inhibitory concentration (IC50) of over 20 µM.
On the same count and under the same terms, as for `COc1ccc(-c2ccccc2)cc1NS(=O)(=O)c1cc(C(=O)N(C)C)cc(Cl)c1OC` [I-434, 3-chloro-4-methoxy-5-(N-(4-methoxy-[1,1′-biphenyl]-3-yl)sulfamoyl)-N,N-dimethylbenzamide], the figure is over 20 µM; as for `COC(=O)c1cc(Cl)cc(S(=O)(=O)Nc2cc(-c3ccccc3)ccc2OC)c1OC` [I-435, Methyl 5-chloro-2-methoxy-3-(N-(4-methoxy-[1,1′-biphenyl]-3-yl)sulfamoyl)benzoate], over 20 µM.
The compound `COc1ccc(-c2ccccc2)cc1NS(=O)(=O)c1cccc(-c2nnn(C)n2)c1` [I-436, N-(2-methoxy-5-phenylphenyl)-3-(2-methyl-2H-1,2,3,4-tetrazol-5-yl)benzene-1-sulfonamide] yielded an IC50 of over 20 µM.
The same measure, in the same setting: for `COc1ccc(-c2ccccc2)cc1NS(=O)(=O)c1cccc(-c2nnnn2C)c1` [I-437, N-(2-methoxy-5-phenylphenyl)-3-(1-methyl-1H-1,2,3,4-tetrazol-5-yl)benzene-1-sulfonamide] the value was over 20 µM; for `COc1ccc(-c2ccccc2)cc1NS(=O)(=O)c1cc(C(=O)O)ccc1Cl` [I-438, 4-chloro-3-[(2-methoxy-5-phenylphenyl)sulfamoyl]benzoic acid], over 20 µM; for `COc1ccc(-c2ccccc2)cc1NS(=O)(=O)c1cc(CC(=O)O)cc(Cl)c1OC` [I-439, 2-[3-chloro-4-methoxy-5-[(2-methoxy-5-phenylphenyl)sulfamoyl]phenyl]acetic Acid], over 20 µM.
On the same count and under the same terms, for `CCC(=O)Nc1c(Cl)cc(Cl)cc1S(=O)(=O)Nc1cc(-c2ccccc2)ccc1OC` [I-440, N-[2,4-dichloro-6-[(2-methoxy-5-phenylphenyl)sulfamoyl]phenyl]propanamide] the value was over 20 µM.
On to `COc1ccccc1S(=O)(=O)Nc1cc(-c2ccccc2)ccc1F` [I-441, N-[4-fluoro-[1,1-biphenyl]-3-yl]-2-methoxybenzene-1-sulfonamide], for which the concentration for half-maximal inhibition (IC50) is over 20 µM.
On the same count and under the same terms, as for `COc1ccc(-c2ccccc2)cc1NS(=O)(=O)c1cc(-c2nn[nH]n2)ccc1OC` [I-442, 2-methoxy-N-(2-methoxy-5-phenylphenyl)-5-(2H-1,2,3,4-tetrazol-5-yl)benzene-1-sulfonamide], the figure is over 20 µM.
On to `Cn1ccc(Oc2c(Cl)cc(Cl)cc2S(=O)(=O)Nc2cc(-c3ccccc3)ccc2F)n1` [I-443, 3,5-dichloro-N-(4-fluoro-[1,1′-biphenyl]-3-yl)-2-((1-methyl-1H-pyrazol-3-yl)oxy)benzenesulfonamide], for which the IC50 is over 20 µM.
Take `O=C(O)c1cc(Cl)c(O)c(S(=O)(=O)Nc2ccc(F)c(-c3ccccc3)c2F)c1` [I-444, 3-chloro-5-[(2,4-difluoro-3-phenylphenyl)sulfamoyl]-4-hydroxybenzoic acid]: the IC50 was over 20 µM.
On the same count and under the same terms, as for `O=C(O)c1ccc(-c2ccccc2)cc1NS(=O)(=O)c1cn[nH]c1` [I-445], the figure is over 20 µM.
On to `CCOC(=O)c1cc(Cl)c(O)c(S(=O)(=O)Nc2cc(-c3cc4ccccc4s3)c(F)cc2OC)c1` [I-506, ethyl 3-(N-(5-(benzo[b]thiophen-2-yl)-4-fluoro-2-methoxyphenyl)sulfamoyl)-5-chloro-4-hydroxybenzoate], for which, where the note is “read-out: ACL-ADP-Glo (IC50), 3 nM ACL, 15 μM ATP, 3 μM CoA, 300 μM Citrate”, the IC50 was under 0.05 µM.
`O=C(O)c1cc(Cl)c(O)c(S(=O)(=O)Nc2cc(-c3cc4ccccc4s3)c(F)cc2F)c1` [I-507, 3-(N-(5-(benzo[b]thiophen-2-yl)-2,4-difluorophenyl)sulfamoyl)-5-chloro-4-hydroxybenzoic Acid] registered an IC50 of 0.05 to 0.5 µM.
For the compound `CC#Cc1cc(Cl)ccc1N(C)S(=O)(=O)c1cc(Br)cc(Cl)c1O` [I-516, 5-bromo-3-chloro-N-(4-chloro-2-(prop-1-yn-1-yl)phenyl)-2-hydroxy-N-methylbenzenesulfonamide], the IC50 lay within 0.5 to 20 µM.
Same read-out and setting: as for `COc1cc(F)c(-c2cc3ccccc3s2)cc1NS(=O)(=O)c1cc(C(=O)O)cc(F)c1O` [I-517, 3-(N-(5-(benzo[b]thiophen-2-yl)-4-fluoro-2-methoxyphenyl)sulfamoyl)-5-fluoro-4-hydroxybenzoic Acid], the figure is 0.5 to 20 µM.
